Legend:
Galium spurium = assay: Test Example 5: herbicidal effect by foliage application, plastic box (symbol Q); assay type: in vivo; details: 320 g/ha, 3 weeks after application
Procedure, shortened: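 Sowing in sterilized diluvial soil, 14 days' greenhouse growth at 25° C. to 30° C., then uniform small-sprayer foliar application of aqueous emulsion dilution; plants scored three weeks afterwards.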

Monochoria vaginalis = assay: Test Example 1: herbicidal activity, application before weed generation in submerged conditions (symbol C); assay type: in vivo; details: application herbicide amount 320 g/ha
Procedure, shortened: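 Scores run 0 to 5 by herbicidal ratio, with 5 meaning 90% or more and 0 meaning 5% or lower, read 3 weeks after treatment. Compound was applied as a diluted emulsion to the water surface of submerged alluvial-soil pots on the day weed seeds were sown.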

In the case of `CON=C(C)CC1CC(OC(=O)CCCC(C)=O)=C(c2c(C)cc(-c3ccc(Cl)cc3)cc2C)C1=O` (stereo not shown) [6-080], the “Q: Galium spurium, herbicidal effect (criteria of Test Example 1)” value (“Q: Galium spurium, herbicidal effect” for short) (Galium spurium) is reported as 4 (Herbicidal ratio of 70% or higher and lower than 90%) and the “Herbicidal effect grade, C: Monochoria vaginalis” value (“Herbicidal effect grade, C” for short) (Monochoria vaginalis) is reported as 2 (Herbicidal ratio of 20% or higher and lower than 40%).

With `CON=C(C)CC1CC(OC(=O)SC(C)(C)C)=C(c2c(C)cc(-c3ccc(Cl)cc3)cc2C)C1=O` (stereo not shown) [6-082] the “Q: Galium spurium, herbicidal effect” value (Galium spurium) was 4 (Herbicidal ratio of 70% or higher and lower than 90%) and the “Herbicidal effect grade, C” value (Monochoria vaginalis) was 4 (Herbicidal ratio of 70% or higher and lower than 90%).

With `CON=C(C)CC1CC(O)=C(c2c(C)cc(-c3ccc(Cl)cc3F)cc2C)C1=O` (stereo not shown) [6-084] the “Q: Galium spurium, herbicidal effect” value (Galium spurium) was 3 (Herbicidal ratio of 40% or higher and lower than 70%) and the “Herbicidal effect grade, C” value (Monochoria vaginalis) was 0 (Herbicidal ratio of 5% or lower (almost no effect)).

`CON=C(C)CC1CC(O)=C(c2c(C)cc(-c3ccc(F)c(Cl)c3)cc2C)C1=O` (stereo not shown) [6-085] was tested, and the “Q: Galium spurium, herbicidal effect” value (Galium spurium) was 4 (Herbicidal ratio of 70% or higher and lower than 90%) and the “Herbicidal effect grade, C” value (Monochoria vaginalis) was 0 (Herbicidal ratio of 5% or lower (almost no effect)).

`CON=C(C)CC1CC(O)=C(c2c(C)cc(-c3ccc(Cl)cc3Cl)cc2C)C1=O` (stereo not shown) [6-088] was tested, and the “Q: Galium spurium, herbicidal effect” value (Galium spurium) was 4 (Herbicidal ratio of 70% or higher and lower than 90%) and the “Herbicidal effect grade, C” value (Monochoria vaginalis) was 0 (Herbicidal ratio of 5% or lower (almost no effect)).

With `CON=C(C)CC1CC(OC(=O)N2CCOCC2)=C(c2c(C)cc(-c3ccc(Cl)cc3F)cc2C)C1=O` (stereo not shown) [6-089] the “Q: Galium spurium, herbicidal effect” value (Galium spurium) was 3 (Herbicidal ratio of 40% or higher and lower than 70%) and the “Herbicidal effect grade, C” value (Monochoria vaginalis) was 3 (Herbicidal ratio of 40% or higher and lower than 70%).

For `CON=C(C)CC1CC(OC(=O)COc2ccccc2)=C(c2c(C)cc(C)cc2OC)C1=O` (stereo not shown) [6-091], the “Q: Galium spurium, herbicidal effect” value (Galium spurium) was 3 (Herbicidal ratio of 40% or higher and lower than 70%) and the “Herbicidal effect grade, C” value (Monochoria vaginalis) was 4 (Herbicidal ratio of 70% or higher and lower than 90%).

For `CON=C(C)CC1CC(OC(=O)COc2ccccc2)=C(c2c(C)cc(-c3ccc(Cl)cc3Cl)cc2C)C1=O` (stereo not shown) [6-092], the “Q: Galium spurium, herbicidal effect” value (Galium spurium) was 4 (Herbicidal ratio of 70% or higher and lower than 90%) and the “Herbicidal effect grade, C” value (Monochoria vaginalis) was 0 (Herbicidal ratio of 5% or lower (almost no effect)).

In the case of `CON=C(C)CC1CC(OC(=O)N2CCOCC2)=C(c2c(C)cc(-c3ccc(F)c(Cl)c3)cc2C)C1=O` (stereo not shown) [6-093], the “Q: Galium spurium, herbicidal effect” value (Galium spurium) is reported as 5 (Herbicidal ratio of 90% or more (almost completely withered)) and the “Herbicidal effect grade, C” value (Monochoria vaginalis) is reported as 4 (Herbicidal ratio of 70% or higher and lower than 90%).

In the case of `CON=C(C)CC1CC(OC(=O)N2CCOCC2)=C(c2c(C)cc(C)cc2OC)C1=O` (stereo not shown) [6-094], the “Q: Galium spurium, herbicidal effect” value (Galium spurium) is reported as 5 (Herbicidal ratio of 90% or more (almost completely withered)) and the “Herbicidal effect grade, C” value (Monochoria vaginalis) is reported as 3 (Herbicidal ratio of 40% or higher and lower than 70%).

For `CON=C(C)CC1CC(OS(=O)(=O)N(C)C)=C(c2c(C)cc(C)cc2OC)C1=O` (stereo not shown) [6-095], the “Q: Galium spurium, herbicidal effect” value (Galium spurium) was 0 (Herbicidal ratio of 5% or lower (almost no effect)) and the “Herbicidal effect grade, C” value (Monochoria vaginalis) was 0 (Herbicidal ratio of 5% or lower (almost no effect)).

In the case of `CON=C(C)CC1CC(OC(=O)COc2ccccc2)=C(c2c(C)cc(-c3ccccc3)cc2OC)C1=O` (stereo not shown) [6-100], the “Q: Galium spurium, herbicidal effect” value (Galium spurium) is reported as 4 (Herbicidal ratio of 70% or higher and lower than 90%) and the “Herbicidal effect grade, C” value (Monochoria vaginalis) is reported as 5 (Herbicidal ratio of 90% or more (almost completely withered)).

For `CON=C(C)CC1CC(O)=C(c2c(C)cc(-c3cc(F)c(F)c(F)c3)cc2C)C1=O` (stereo not shown) [6-104], the “Q: Galium spurium, herbicidal effect” value (Galium spurium) was 4 (Herbicidal ratio of 70% or higher and lower than 90%) and the “Herbicidal effect grade, C” value (Monochoria vaginalis) was 5 (Herbicidal ratio of 90% or more (almost completely withered)).

For `CON=C(C)CC1CC(O)=C(c2c(C)cc(-c3ccsc3)cc2C)C1=O` (stereo not shown) [6-106], the “Q: Galium spurium, herbicidal effect” value (Galium spurium) was 3 (Herbicidal ratio of 40% or higher and lower than 70%) and the “Herbicidal effect grade, C” value (Monochoria vaginalis) was 4 (Herbicidal ratio of 70% or higher and lower than 90%).

Reference: patent publication US11000033B2, “Ketone or oxime compound, and herbicide” (NISSAN CHEMICAL CORPORATION, priority 2014, dated 2021)
